Source: PMC6263166 (The protein journal, 2011)
Where two headings read alike, the source gives them in different places. One block for each compound: values may come before it.

Assays:
CYP1A2 [1] = molecular target: T1, CYP1A2 (Homo sapiens, UniProt P05177); details: for concentrations at which hCYP1A2 was significantly inhibited: p < 0.05 compared to DMSO control, tested 0.005-1.5 μM
T1 sequence (P05177 1-516): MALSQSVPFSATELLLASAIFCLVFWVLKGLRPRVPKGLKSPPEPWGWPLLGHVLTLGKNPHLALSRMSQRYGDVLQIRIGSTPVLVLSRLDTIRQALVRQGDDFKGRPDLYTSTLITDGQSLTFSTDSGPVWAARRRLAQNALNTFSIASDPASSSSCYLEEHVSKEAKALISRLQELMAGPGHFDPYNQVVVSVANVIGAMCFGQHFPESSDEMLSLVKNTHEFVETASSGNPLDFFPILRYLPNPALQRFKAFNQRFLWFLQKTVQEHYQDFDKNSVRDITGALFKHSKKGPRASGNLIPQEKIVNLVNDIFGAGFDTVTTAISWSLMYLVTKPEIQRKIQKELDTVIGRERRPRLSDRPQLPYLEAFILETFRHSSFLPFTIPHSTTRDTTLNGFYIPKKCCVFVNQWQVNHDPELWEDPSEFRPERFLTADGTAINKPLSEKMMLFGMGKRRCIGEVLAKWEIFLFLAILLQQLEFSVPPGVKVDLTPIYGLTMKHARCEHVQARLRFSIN

CYP1A2 [2] = molecular target: T1, CYP1A2; test: biochemical
CYP1A2 [3] = details: cited from earlier work
CYP1A2 [4] = molecular target: T1, CYP1A2; test: Inhibition matrix assay; assay type: biochemical
CYP1A2 [5] = details: human liver microsomes, ethoxyresorufin as substrate; cited from earlier work
CYP1A2 [6] = molecular target: T1, CYP1A2; test: NADPH-dependent and GSH- and SOD-independent inactivation; assay type: biochemical; details: 8 μM isopimpinellin
CYP1A2 [7] = molecular target: T1, CYP1A2; test: Irreversibility of inactivation; assay type: biochemical
CYP1A2 [8] = molecular target: T1, CYP1A2; test: Partition ratio by titration of the enzyme with the inactivator; assay type: biochemical
CYP1A2 [9] = molecular target: T1, CYP1A2; test: Substrate protection; assay type: biochemical; details: 1.2 μM (KI) isopimpinellin
CYP1A2 [10] = molecular target: T1, CYP1A2
CYP1A2 [11] = molecular target: T1, CYP1A2; test: in vitro
[12] = human liver microsomes, various substrates

Structure (SMILES): O=c1ccc2ccc3occc3c2o1 [angelicin]
significance of hCYP1A2 inhibition (CYP1A2 [1]; p < 0.05, tested 0.5-150 μM): significant hCYP1A2 inhibition at all tested concentrations
IC50 (CYP1A2 [2]): 9600 nM

Structure (SMILES): CC(C)=CCOc1c2occc2cc2ccc(=O)oc12 [imperatorin]
Ki (CYP1A2 [4]): 7 nM
mode of inhibition (CYP1A2 [4]; Dixon plots of the kinetics data): mixed inhibition
concentrations at which hCYP1A2 was significantly inhibited (CYP1A2 [1]): ≥ 5 nM
IC50 (CYP1A2 [5]): 380 ± 120 nM
IC50 (CYP1A2 [2]): 20 nM

activity remaining pre- and post-dialysis (CYP1A2 [7]; 6.4 μM, one assay with six replicates (assay development)): 24 ± 2%
activity recovered after dialysis (CYP1A2 [7]; 8 μM, after 20 h of dialysis): approximately 21%
partition ratio (CYP1A2 [8]; 0.25-64 μM, preincubation 30 min, extrapolated from lower ratio data points): 8
remaining CYP1A2 activity at high inactivator to enzyme ratios (CYP1A2 [8]; five highest concentration ratios of isopimpinellin to hCYP1A2): no remaining CYP1A2 activity
activity of hCYP1A2 (CYP1A2 [9]; 0 μM methoxyresorufin in preincubation): 31.8%
activity of hCYP1A2 (CYP1A2 [9]; 0.4 μM methoxyresorufin in preincubation): 33.9%
activity of hCYP1A2 (CYP1A2 [9]; 2.0 μM methoxyresorufin in preincubation): 36.9%
activity of hCYP1A2 (CYP1A2 [9]; 10 μM methoxyresorufin in preincubation): 65.4%
concentrations at which hCYP1A2 was significantly inhibited (CYP1A2 [1]): ≥ 50 nM
t1/2 (time required for half the enzyme molecules to be inactivated) (CYP1A2 [10]): 2.05 ± 0.22 min
KI (inactivation) (CYP1A2 [11]): 1200 nM
kinact (CYP1A2 [11]): 0.00567 s⁻¹
kinact/KI (CYP1A2 [11]): 5000 M⁻¹ s⁻¹
IC50 (CYP1A2 [2]): 460 nM
Structure (SMILES): COc1c2ccoc2c(OC)c2oc(=O)ccc12 [isopimpinellin]
effect of GSH on inactivation (CYP1A2 [6]; GSH 250 μM): GSH failed to protect the hCYP1A2 inactivation
effect of SOD on inactivation (CYP1A2 [6]; SOD 1000 units): SOD did not prevent hCYP1A2 from inactivation, but rather enhanced the inactivation
effect of NADPH on inactivation (CYP1A2 [6]; with and without 250 μM NADPH): the lack of NADPH results in the loss of the inhibitory effect
IC50 (CYP1A2 [5]): 860 ± 180 nM

Ki (CYP1A2 [4]): 100 nM
mode of inhibition (CYP1A2 [4]): mixed inhibition
IC50 (CYP1A2 [2]): 790 nM
Structure (SMILES): Cc1cc2cc3c(C)cc(=O)oc3c(C)c2o1 [trioxsalen, reference compound]
